Test results: patent publication US4638070A, “Heterocyclic amino-alcohol derivatives” (Continental Pharma, priority 1980, dated 1987)

Key:
[1] = system: unanaesthetized, hypertension-suffering rat; assay: Antihypertensive activity (systolic arterial pressure), oral; type: in vivo; details: 60 mg/kg, hypertensive rat, 3 hours
Protocol: (2) The antihypertensive activity was measured on unanaesthetized, hypertension-suffering rat. The tested substances were orally given at a rate of 60 mg/kg. The systolic arterial pressure was measured every 30 minutes for 2 hours before and for 3 hours after the tested product was given. Results are expressed as follows: […]
O: no reduction of arterial pressure.
+: reduction lower than 10 mm Hg.
++: reduction of 10 to 20 mm Hg.
+++: reduction higher than 20 mm Hg.

[2] = system: guinea-pig ileum (acetylcholine contractions); assay: Antispasmodic activity in vitro, contractions caused by acetylcholine; details: added 15 minutes before spasm-producing agent
Protocol: (§1) (4) The antispasmodic activity was measured in vitro, on guinea-pig ileum, the contractions of which were caused by histammne (Hist.), acetylcholine (Achol) or barium chloride (BaCl2). The tested products were added to perfusion bath 15 minutes before the spasm-producing agents.
(§2) The dose is given in micograms (μg) per ml of bath causing complete spasm inhibition.

femoral artery = assay: Vasodilator activity, femoral artery (technique of perfused paw); type: in vivo; set-up: key: O: no action; +: slight activity; ++: effect equal to half the effect of papaverine; +++: effect equal to that of papaverine; ++++: effect higher than that of papaverine; details: intra-arterial, 30 mg/kg, anaesthetized dog, vs papaverine at same dose
Protocol: (3) The vasodilator activity was measured at the level of femoral artery on anaesthetized dog (technique of perfused paw). The tested substances were given intra-arterially at the rate of 30 mg/kg. Results are expressed with respect to papaverine tested at the same dose.
++: effect equal to half the effect of papaverine.
+++: effect equal to that of papaverine.
++++: effect higher than that of papaverine.

[3] = system: guinea-pig ileum (histamine contractions); assay: Antispasmodic activity in vitro, contractions caused by histamine; details: added 15 minutes before spasm-producing agent
Protocol: as §1, §2

[4] = Acute toxicity, oral, LD50 (Litchfield and Wilcoxon); details: mouse, in vivo, fasted male mice, confidence limits p=95% in brackets
Protocol: (1) The acute toxicity was determined on fasted male mice. The tested substances were orally administered and LD50 values (lethal dose for 50% of animals) were calculated according to the method of Litchfield and Wilcoxon (J. Pharmacol. exp. Ther. 96, 94-113, 1949). These LD50 values are given in mg/kg and also, when possible, with their confidence limits for p=95%.

Row | Molecule | ANTIHYPERTENSIVE ACTIVITY [1] | ANTISPASMODIC ACTIVITY ACHOL (dose causing complete spasm inhibition) [2] [μg per ml] | VASODILATOR ACTIVITY (femoral artery) | ANTISPASMODIC ACTIVITY HIST. (dose causing complete spasm inhibition) [3] [μg per ml] | LD50 [4] [mg/kg]
1 | C[C@H](NCCCCc1ccccc1)[C@@H](O)c1ccc2c(c1)CCS2 (relative stereo) [No 98] | + (reduction lower than 10 mm Hg) |  |  |  | 
2 | C#CC(C)(C)NC(C)C(O)c1ccc2c(c1)CCCS2 (stereo not shown) [No 44] | +++ (reduction higher than 20 mm Hg) | 8.3 | ++ | 16.7 | 
3 | CC1Cc2cc(C(O)C(C)NCCCc3ccccc3)ccc2S1 (stereo not shown) [No 67] | +++ (reduction higher than 20 mm Hg) | 1.7 | +++ | 1.7 | 
4 | CC(NCCCCc1ccccc1)C(OC(=O)C1CCCCC1)c1ccc2c(c1)CCS2 (stereo not shown) [No 138] | +++ (reduction higher than 20 mm Hg) |  |  |  | > 4000
5 | 1-(2-methyl-2,3-dihydro-5-benzo[b]furanyl-2-[4-(p-chlorophenyl)butylamino]- 1-propanol [No 65] | +++ (reduction higher than 20 mm Hg) | 1.7 | ++++ | 1.7 | 
6 | CC(NCCCCc1ccccc1)C(OC(=O)C1CCC1)c1ccc2c(c1)CCS2 (stereo not shown) [No 132] | +++ (reduction higher than 20 mm Hg) |  |  |  | 1900
7 | CC(NCCCCc1ccccc1)C(OC(=O)C1CCCC1)c1ccc2c(c1)CCS2 (stereo not shown) [No 137] | +++ (reduction higher than 20 mm Hg) |  |  |  | ~1750
8 | CC(C(O)c1ccc2c(c1)CCCS2)N1CCOC(c2ccccc2)C1C (stereo not shown) [No 110] | + (reduction lower than 10 mm Hg) | 3.3 | 0 | 0.8 | 
9 | CC(=O)OC(c1ccc2c(c1)CCS2)C(C)NCCCCc1ccccc1 (stereo not shown) [No 112] | +++ (reduction higher than 20 mm Hg) | 3.3 | +++ | 0.3 | 
10 | CC(CCCc1ccccc1)NC(C)C(O)c1ccc2c(c1)CCCS2 (stereo not shown) [No 42] | +++ (reduction higher than 20 mm Hg) | 1.7 | +++ | 1.7 | 
11 | Cc1ccc(CCCCNC(C)C(O)c2ccc3c(c2)CCC3)cc1 (stereo not shown) [No 166] | ++ (reduction of 10 to 20 mm Hg) | 0.8 | +++ | 0.8 | 
12 | CC(=O)O[C@@H](c1ccc2c(c1)CCS2)[C@H](C)NCCCCc1ccccc1 (relative stereo) [No 113] | + (reduction lower than 10 mm Hg) |  |  |  | 
13 | CCCCCCCCNC(C)C(OC(=O)CCC)c1ccc2c(c1)CCCS2 (stereo not shown) [No 134] | +++ (reduction higher than 20 mm Hg) |  |  |  | > 4000
14 | Cc1ccc(CCCCNC(C)C(O)c2ccc3c(c2)CC(C)O3)cc1 (stereo not shown) [No 90] | +++ (reduction higher than 20 mm Hg) | 1.7 | ++++ | 0.8 | 
15 | 1-(2,3-dihydro-5-benzo[b]thienyl)-2-(4-phenylbutylamino)-1-propanol [Example 18] | +++ (reduction higher than 20 mm Hg) | 0.33 | ++++ | 0.8 | 
16 | CCCCCCCCNC(C)C(O)c1ccc2c(c1)SCCS2 (stereo not shown) [No 101] | ++ (reduction of 10 to 20 mm Hg) | 0.8 | +++ | 0.8 | 
17 | CC(NCCCC(=O)c1ccc(F)cc1)C(O)c1ccc2c(c1)CCC2 (stereo not shown) [No 175] | +++ (reduction higher than 20 mm Hg) | 0.8 | ++ | 0.8 | 
18 | CCCCOCCCNC(C)C(O)c1ccc2c(c1)CC(C)O2 (stereo not shown) [No 74] | + (reduction lower than 10 mm Hg) | 8.3 | ++ | 8.3 | 
